Laboratory results published in publication PMC4833353 (PLoS Pathogens, 2016).
Values joined by “and” are separate entries in the source; they are usually repeats but may differ in a detail not shown here. Equal entries are not always repeated.

How the values were obtained:
ET CTB [1] = target: T1, ET CTB (Vibrio cholerae serotype O1, UniProt P01556); assay: biochemical; type: binding; settings: for Kd: K D
ET CTB [2] = target: T1, ET CTB; type: binding

T1 sequence (P01556 22-124 limits assumed): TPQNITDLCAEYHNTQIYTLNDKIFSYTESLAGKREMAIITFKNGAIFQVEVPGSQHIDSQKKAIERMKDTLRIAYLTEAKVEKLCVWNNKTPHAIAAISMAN

Row | Molecule | binding affinity (in words) (ET CTB [1]) | Kd (ET CTB [1]) | binding of ET CTB to GM1-coated wells after preincubation with ligand (ET CTB [2]) | binding to CTB (ET CTB [1])
1 | CC(=O)N[C@@H]1[C@@H](O[C@@H]2O[C@@H](C)[C@@H](O)[C@@H](O)[C@@H]2O)[C@H](O[C@@H]2O[C@H](CO)[C@H](O)[C@H](O[C@H]3O[C@H](CO)[C@H](O)[C@H](O)[C@H]3NC(C)=O)[C@H]2O[C@@H]2O[C@@H](C)[C@@H](O)[C@@H](O)[C@@H]2O)[C@@H](CO)O[C@H]1O [A-penta-BGA, GalNAcα3[Fucα2]Galβ4[Fucα3]GlcNAc] | binding very weakly | > 30 mM | – | –
2 | CC(=O)N[C@H]1[C@@H](O[C@H]2[C@@H](O)[C@@H](CO)O[C@@H](O[C@H]3[C@H](O[C@@H]4O[C@@H](C)[C@@H](O)[C@@H](O)[C@@H]4O)[C@@H](O)[C@H](O)O[C@@H]3CO)[C@@H]2O[C@@H]2O[C@@H](C)[C@@H](O)[C@@H](O)[C@@H]2O)O[C@H](CO)[C@H](O)[C@@H]1O [A-penta-HMO, GalNAcα3[Fucα2]Galβ4[Fucα3]Glc] | – | 4.6 mM and 4.57 mM | interfered with binding of CTB to GM1 | –
3 | GalNAcα3[Fucα2]Galβ3[Fucα4]GlcNAc | – | – | – | very weak to no binding
